Assay results taken from US4937360A, “N-substituted amide derivatives useful for treating liver diseases” (Taisho Pharmaceutical Co., Ltd., priority 1988, dated 1990).

How the values were obtained:
[1] = system: acute liver injury induced by D-galactosamine; experiment: Effect on acute liver injury induced by D-galactosamine (serum GPT); assay type: in vivo, male Wister strain rats; conditions: oral, rats, 18 hours; for GPT: mean ± S.E.; for Inhibition %: serum GPT vs control
Procedure: (§1) Effect on acute liver injury induced by D-galactosamine Six male Wister strain rats (eight weeks old, about 200 g of body weight) per group were used for the test. Suspensions of the compound, obtained in Example 1, in 5% gum arabic solution in various concentrations were prepared for test drugs. A 5% gum arabic solution was used as a control. The test drugs and a 5% gum arabic solution were each administered orally in an amount of 5 ml/kg of body weight to different animals. After standing for 18 hours, the animals were anesthetized with ether, the blood was drawn and centrifuged for measuring the serum GPT value. Malotilate served as a comparative test drug.

[2] = system: acute liver injury induced by carbon tetrachloride; experiment: Effect on acute liver injury induced by carbon tetrachloride (serum GPT); assay type: in vivo, male ICR strain mice; conditions: oral, mice, 18 hours; for GPT: mean ± S.E.; for Inhibition %: serum GPT vs control
Procedure: as §1, with “by carbon tetrachloride Ten” for “by D-galactosamine Six”, “male ICR” for “male Wister”, “strain mice (six” for “strain rats (eight”, “about 30” for “about 200”, “of 10” for “of 5”

Compound | GPT ([1]; 30 mg/kg) [IU/1] | Inhibition % ([1]; 30 mg/kg) [%] | GPT ([1]; 100 mg/kg) [IU/1] | Inhibition % ([1]; 100 mg/kg) [%] | GPT ([1]; 300 mg/kg) [IU/1] | Inhibition % ([1]; 300 mg/kg) [%] | GPT ([2]; 10 mg/kg) [IU/1] | Inhibition % ([2]; 10 mg/kg) [%] | GPT ([2]; 30 mg/kg) [IU/1] | Inhibition % ([2]; 30 mg/kg) [%] | GPT ([2]; 100 mg/kg) [IU/1] | Inhibition % ([2]; 100 mg/kg) [%]
CC(=O)N(C)CC(=O)c1ccc2c(c1)OCO2 [A, N-methyl-N-(3,4-methylenedioxyphenacyl)acetamide] | 15972 ± 2810 | 22.5 | 7440 ± 757 | 64.1 | 4415 ± 1539 | 78.8 | 2634 ± 380 | 56 | 636 ± 245 | 89 | 39 ± 3 | 100
CC(C)OC(=O)C(C(=O)OC(C)C)=C1SC=CS1 [B, Malotilate] | 19240 ± 1183 | 6.4 | 11190 ± 777 | 45.6 | 15557 ± 1669 | 24.6 | 4291 ± 1012 | 28 | 1778 ± 310 | 71 | 148 ± 40 | 98
